Source: paper PMC8752738, “A propolis-derived small molecule ameliorates metabolic syndrome in obese mice by targeting the CREB/CRTC2 transcriptional complex” (Nature Communications, 2022)
“And” between values parts separate entries of the source, which are not always exact repeats. Equal entries are not always repeated. Where two headings read alike, the source gives them in different places.

Tests used:
Type in all cases: in vivo, mouse
[1] = Tissue distribution assay; details: male, C57/BL6, mouse, po, 20 mg/kg
Experimental: Male C57/BL6 mice (18–20 g, n = 3 in each group) were randomly sorted into treatment groups. Being fasted for 12-h, mice were treated with oral gavage of the compound APC (20 mg/kg, in DMSO/0.5% HMPC, 5/95, v/v). After 2, 4, and 8-h of administration, the animals were sacrificed, respectively, the indicated tissues, including plasma, liver, kidney, muscle, brain, spleen, pancreas, white and brown fat, were collected and preserved at −80 °C. The APC content in samples was analyzed with a liquid chromatography-mass spectrometry/mass spectrometry (LC–MS/MS) system and normalized by protein content.

tissue protein levels = assay: Immunoblotting of tissue proteins in treated mice; details: for Relative LXRa/ACTIN, Mean Diff. (VEH vs. treated) / Relative LXRa/ACTIN, Mean 2 (group mean) / Relative LXRa/ACTIN: Figure 7h; for Relative LXRa/ACTIN, Mean 2 (group mean): N2 = 4; for Relative LXRa/ACTIN: single replicates
Experimental: Immunoblotting and immunoprecipitation assays were performed as previously described, with antibodies recognizing CREB, Ser133-P-CREB, AMPK, P-AMPK, AKT, P-AKT (Cell Signaling), PGC-1α (Merck), CRTC2 (Calbiochem), PCK1 (Santa Cruz), SREBP1 (Santa Cruz), SREBP2 (BD), HA (Convance), LXRα (Santa Cruz), FLAG (Sigma), GST (Covance), HIS (Abmart), GAPDH (AOGMA), α-TUBULIN (Abmart), β-ACTIN (Abmart), and other antibodies (Supplementary Table 3). For immunostaining assays, primary cultured hepatocytes seeded on coverslips were fixed with 4% paraformaldehyde for 20 min, permeabilized with 0.3% Triton X-100 in PBS, and then blocked by 5% normal goat serum and 0.3% Triton X-100 in PBS, followed by incubation with anti-CREB (1:1000), anti-P-CREB (1:1000), or anti-HA (1:3000) antibodies for 1 h at 4 °C. Slides were then washed, and after washing, slides were incubated with fluorochrome-conjugated secondary antibodies (Invitrogen). Slides were then washed and mounted with Vectashield mounting media containing 4, 6-diamidino-2-phenylindole (DAPI).

[2] = Blood chemistry (plasma hormones by ELISA)
Experimental: The plasma hormone levels of insulin and ghrelin were measured by ELISA kits from Millipore, glucagon and leptin were determined by ELISA kits from R&D.

[3] = Figure 6b right, N=4, VEH mean 1
[4] = Figure 6b right, individual animals, relative to VEH
[5] = Figure 8c, relative protein in DIO liver, individual samples
[6] = db/db mice, liver, group mean, N=3, VEH mean 1
[7] = db/db mice, liver, individual mouse
[8] = liver of DIO mice, individual samples, n=3
[9] = liver, CRTC2KO mice, drug minus VEH
[10] = liver, WT mice, group mean, N=4
[11] = DIO mice, APC 10mg/kg, group mean, n=6
[12] = DIO mice, APC 10mg/kg, individual mouse
[13] = DIO mice, APC 20mg/kg, individual mouse

CC(C)=CCc1cc(C=CC(=O)O)cc(CC=C(C)C)c1O [APC, 3,5-diprenyl-4-hydroxycinnamic acid]
concentration at 4 h ([1]; spleen, spleen, 4 h after oral, Figure 5l, size of bubble, read-out: average APC content 4 h after oral): 16.2 ng/g
concentration at 4 h ([1]; white fat, WF, 4 h after oral, Figure 5l, Y, read-out: average APC content 4 h after oral): 32.7 ng/g
concentration at 4 h ([1]; white fat, WF, 4 h after oral, Figure 5l, size of bubble, read-out: average APC content 4 h after oral): 32.7 ng/g
concentration at 2 h ([1]; white fat, WhiteFat, 2H, oral, individual mice, read-out: APC content in tissue): 18.5 ng/g
concentration at 4 h ([1]; white fat, WhiteFat, 4H, oral, individual mice, read-out: APC content in tissue): 23.2 ng/g
hepatic protein levels of PCK1 and PGC-1α (tissue protein levels; DIO and db/db mice): decreased
accumulation of mature SREBP proteins in the liver (tissue protein levels; DIO mice): reducing
protein levels of LXRα and SREBP1 in the liver (tissue protein levels; DIO mice): decreased
SREBP1/GAPDH, Predicted (LS) mean (tissue protein levels; [3]): 0.3097
SREBP2/GAPDH, Predicted (LS) mean (tissue protein levels; [3]): 0.1841
Relative SREBP1/2 protein levels: SREBP1/GAPDH (tissue protein levels; [4]): 0.2289 and 0.468 and 0.339 and 0.2027
Relative SREBP1/2 protein levels: SREBP2/GAPDH (tissue protein levels; [4]): 0.3721 and 0.1919 and 0.1184 and 0.05422
PGC1a/GAPDH density, mean (tissue protein levels; Figure 8c, DIO liver, group mean, N=3, Ctrl mean 1): 0.5994
PCK1/GAPDH density, mean (tissue protein levels; Figure 8c, DIO liver, group mean, N=3, Ctrl mean 1.007): 0.6998
Relative PGC1a/GAPDH density (tissue protein levels; [5]): 0.6916 and 0.563 and 0.5437
relative PCK1/GAPDH density (tissue protein levels; [5]): 0.6644 and 0.7152 and 0.7198
Relative LXRa/ACTIN, Mean Diff. (VEH vs. treated) (tissue protein levels; CRTC2KO): 0.1178
Relative LXRa/ACTIN, Mean 2 (group mean) (tissue protein levels; CRTC2KO): 0.6864
Relative LXRa/ACTIN (tissue protein levels; CT2KO): 0.6612 and 0.7951 and 0.6751 and 0.6141
Relative LXRa/ACTIN, Mean Diff. (VEH vs. treated) (tissue protein levels; WT): 0.3705
Relative LXRa/ACTIN, Mean 2 (group mean) (tissue protein levels; WT): 0.525
Relative LXRa/ACTIN (tissue protein levels; WT): 0.572 and 0.5732 and 0.4815 and 0.4734
Relative PCK1/TUBLIN in db/db liver, mean (tissue protein levels; [6]): 0.4585 folds
Relative PGC1a/TUBLIN in db/db liver, mean (tissue protein levels; [6]): 0.2953 folds
Relative proteins in the liver of db/db mice, PCK1/TUBLIN (tissue protein levels; [7]): 0.5197 folds and 0.4980 folds and 0.3577 folds
Relative proteins in the liver of db/db mice, PGC1a/TUBLIN (tissue protein levels; [7]): 0.2725 folds and 0.3156 folds and 0.2979 folds
relative protein levels in liver of DIO: LXRa/GAPDH (tissue protein levels; [8]): 0.741 and 0.777 and 0.8147
relative protein levels in liver of DIO: PPARa/GAPDH (tissue protein levels; [8]): 0.924 and 0.9 and 0.98
relative protein levels in liver of DIO: SREBP1/GAPDH (tissue protein levels; [8]): 0.391 and 0.515 and 0.283
relative protein levels in liver of DIO: LXRa, group mean (Mean 1) (tissue protein levels; liver of DIO mice, mean of N=3): 0.7776
relative protein levels in liver of DIO: PPARa, group mean (Mean 1) (tissue protein levels; liver of DIO mice, mean of N=3): 0.9347
relative protein levels in liver of DIO: SREBP1, group mean (Mean 1) (tissue protein levels; liver of DIO mice, mean of N=3): 0.3963
SREBP1/ACT IN CT2KO, Mean Diff. vs. VEH (tissue protein levels; [9]): -0.1371
SREBP2/ACT IN CT2KO, Mean Diff. vs. VEH (tissue protein levels; [9]): -0.0958
SREBP1/ACT IN CT2KO, mean (tissue protein levels; liver, CRTC2KO mice, group mean, N=4): 0.5503
SREBP1/ACT IN CT2KO (related SREBP1 protein levels in CRTC2KO liver) (tissue protein levels; liver, CRTC2KO mice, individual replicates, Supp.fig.5a left): 0.5592 and 0.5689 and 0.5793 and 0.4937
SREBP2/ACT IN CT2KO (related SREBP2 protein levels in CRTC2KO liver) (tissue protein levels; liver, CRTC2KO mice, individual replicates, Supp.fig.5a right): 0.6411 and 0.5673 and 0.6822 and 0.6938
SREBP1/ACT IN WT, Mean Diff. vs. VEH (tissue protein levels; liver, WT mice, drug minus VEH): -0.2945
SREBP2/ACT IN WT, Mean Diff. vs. VEH (tissue protein levels; liver, WT mice, drug minus VEH): -0.4593
SREBP1/ACT IN WT, mean (tissue protein levels; [10]): 0.6687
SREBP2/ACT IN WT, mean (tissue protein levels; [10]): 0.5653
SREBP1/ACT IN WT (related SREBP1 protein levels in liver) (tissue protein levels; liver, WT mice, individual replicates, Supp.fig.5a left): 0.6865 and 0.5728 and 0.728 and 0.6877
SREBP2/ACT IN WT (related SREBP2 protein levels in liver) (tissue protein levels; liver, WT mice, individual replicates, Supp.fig.5a right): 0.6071 and 0.5991 and 0.5115 and 0.5437
phosphorylated AKT in liver, muscle, brown and white adipose tissues (tissue protein levels; treated obese mice): enhanced
plasma insulin and glucagon levels ([2]; DIO and db/db mice): without a change
leptin levels ([2]; DIO mice): not significant
plasma glucagon in DIO, mean [2, 11]: 109 ng/dL
plasma leptin in DIO, mean [2, 11]: 54.89 ng/mL
plasma glucagon in DIO [2, 12]: 116.57 ng/dL and 100.35 ng/dL and 100.46 ng/dL and 94.57 ng/dL and 118.78 ng/dL and 123.34 ng/dL
plasma leptin in DIO [2, 12]: 54.49 ng/mL and 52.07 ng/mL and 53.5 ng/mL and 46.64 ng/mL and 59.49 ng/mL and 63.13 ng/mL
plasma glucagon in DIO, mean ([2]; DIO mice, APC 20mg/kg, group mean, n=6): 102.8 ng/dL
plasma glucagon in DIO [2, 13]: 108 ng/dL and 94.83 ng/dL and 125.84 ng/dL and 81.38 ng/dL and 93.2 ng/dL and 113.74 ng/dL
plasma leptin in DIO [2, 13]: 64.99 ng/mL and 59.47 ng/mL and 49.46 ng/mL and 54.02 ng/mL and 54.7 ng/mL and 57.91 ng/mL
Plasma Insulin, mean ([2]; Figure 8e, APC 10mg/kg, group mean, n=5, VEH mean 5.378): 4.88 ng/mL
Plasma Insulin ([2]; Figure 8e, APC 10mg/kg, individual mice): 5.624 ng/mL and 3.217 ng/mL and 4.483 ng/mL and 6.089 ng/mL and 4.987 ng/mL
Plasma Insulin, mean ([2]; Figure 8e, APC 20mg/kg, group mean, n=5, VEH mean 5.378): 4.334 ng/mL
Plasma Insulin ([2]; Figure 8e, APC 20mg/kg, individual mice): 3.191 ng/mL and 4.624 ng/mL and 5.384 ng/mL and 4.549 ng/mL and 3.923 ng/mL
leptin levels ([2]; db/db mice): effectively reduced
plasma ghrelin ([2]; db/db mice): no significant effects
Plasma Insulin, mean ([2]; db/db mice, group mean, n=6): 12.2 ng/mL
plasma glucagon in db/db, mean ([2]; db/db mice, group mean, n=6): 266 ng/dL
Plasma Insulin ([2]; db/db mice, individual mouse): 9.327 ng/mL and 11.259 ng/mL and 11.886 ng/mL and 10.188 ng/mL and 13.359 ng/mL and 17.190 ng/mL
plasma glucagon in db/db ([2]; db/db mice, individual mouse): 251.14 ng/dL and 274.24 ng/dL and 342.64 ng/dL and 244.9 ng/dL and 187.78 ng/dL and 295.42 ng/dL
plasma Ghrelin in db/db ip APC ([2]; db/db mice, ip APC, single animals): 12.653 ng/mL and 14.269 ng/mL and 10.885 ng/mL and 7.483 ng/mL and 8.587 ng/mL
Plasma leptin, mean of column B (APC) ([2]; db/db mice, group mean (Figure 8l), n=5, VEH mean 1.196): 0.714 ng/mL
Plasma leptin ([2]; db/db mice, individual animals (Figure 8l), n=5): 0.7357 ng/mL and 0.6738 ng/mL and 0.8588 ng/mL and 0.5919 ng/mL and 0.7100 ng/mL
